In US20050209278A1, “Piperidinyl- and piperazinyl-sulfonylmethyl hydroxamic acids and their use as protease inhibitors” (priority 2002, published 2005):
Where “and” joins values, the source holds several entries; their conditions need not be identical. Identical values can stand only once.

Legend:
MMP-2 = target: T1, MMP-2 (Homo sapiens, UniProt P08253); assay: In vitro MMP inhibition, Ki determination (fluorogenic substrate II); format: biochemical; conditions: value outside parentheses; read-out: MMP-2 Ki
T1 construct: made in house; host or cells: MMP-2-transfected p2AHT2 cells
T1 sequence (P08253 110-660): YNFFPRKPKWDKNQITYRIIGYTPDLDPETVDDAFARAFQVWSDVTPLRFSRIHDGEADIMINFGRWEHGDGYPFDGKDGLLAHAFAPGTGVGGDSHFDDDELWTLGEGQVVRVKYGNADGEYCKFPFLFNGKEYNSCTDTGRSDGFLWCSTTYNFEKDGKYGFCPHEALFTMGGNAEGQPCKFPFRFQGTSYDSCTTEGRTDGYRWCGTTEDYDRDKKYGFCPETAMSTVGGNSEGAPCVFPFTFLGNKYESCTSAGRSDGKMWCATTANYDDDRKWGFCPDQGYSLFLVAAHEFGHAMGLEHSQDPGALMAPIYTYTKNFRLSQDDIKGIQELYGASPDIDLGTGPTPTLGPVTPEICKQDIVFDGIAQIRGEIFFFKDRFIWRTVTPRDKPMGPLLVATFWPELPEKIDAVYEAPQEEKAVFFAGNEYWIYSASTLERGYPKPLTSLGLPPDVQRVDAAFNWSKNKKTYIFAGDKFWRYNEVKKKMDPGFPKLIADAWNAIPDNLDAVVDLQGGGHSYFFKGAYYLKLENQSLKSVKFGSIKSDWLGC

MMP-13 = target: T2, MMP-13 (Homo sapiens, UniProt P45452); assay: as above; format: biochemical; conditions: value outside parentheses; read-out: MMP-13 Ki
T2 construct: made in house; host or cells: baculovirus / insect cells
In short: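 Ki determined with human recombinant MMP-13, baculovirus-expressed as proenzyme and activated with APMA. Fluorogenic MCA/Dpa substrate II at 4 μM (at or below Km) with low enzyme in Tris buffer pH 7.5 with CaCl2. Incubation was 1 h at room temperature, with fluorescence read at 330/420 nm.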

| Ki (MMP-2) | Ki (MMP-13) | SMILES |
| --- | --- | --- |
| 0.333 nM | 0.408 nM | O=C(NO)C1(S(=O)(=O)N2CCN(c3ncc(-c4ccc5c(c4)OCO5)s3)CC2)CCOCC1 [Example 362] |
| 0.55 nM | 0.71 nM | O=C(NO)C1(S(=O)(=O)N2CCN(c3ccc(-c4ccccc4F)cn3)CC2)CCOCC1 [Example 317] |
| 0.113 nM | 0.167 nM | O=C(NO)C1(S(=O)(=O)N2CCN(c3ncc(-c4ccc(Cl)cc4)s3)CC2)CCOCC1 [Example 343] |
| 2130 nM | 3640 nM | O=C(O)c1ccc(N2CCN(S(=O)(=O)C3(C(=O)NO)CCOCC3)CC2)cc1 [Example 352] |
| 0.14 nM | 0.167 nM | CCCCc1ccc(-c2cnc(N3CCN(S(=O)(=O)C4(C(=O)NO)CCOCC4)CC3)s2)cc1 [Example 379] |
| 190 nM | 28.2 nM | COCCN1CCC(C(=O)NO)(S(=O)(=O)N2CCN(c3ncccn3)CC2)CC1 [Example 332] |
| 2.12 nM | 5.08 nM | O=C(NO)C1(S(=O)(=O)N2CCC(c3ccc(OC(F)(F)C(F)(F)F)cc3)CC2)CCOCC1 [Example 349] |
| 9.1 nM | 19.6 nM | CCc1ccc(C2CCN(S(=O)(=O)C3(C(=O)NO)CCN(CCOC)CC3)CC2)s1 [Example 314] |
| 0.225 nM | 0.329 nM | O=C(NO)C1(S(=O)(=O)N2CCN(c3ncc(-c4ccc(O)cc4)s3)CC2)CCOCC1 [Example 368] |
| 0.103 nM | 0.193 nM | O=C(NO)C1(S(=O)(=O)N2CCN(c3ccc(Br)cn3)CC2)CCOCC1 [Example 331] |
| 0.38 nM | 0.47 nM | O=C(NO)C1(S(=O)(=O)N2CCN(c3ccc(CCCC(F)(F)F)c(F)c3)CC2)CCOCC1 [Example 389] |
| 5.99 nM | 2.75 nM | CCCCc1cnc(N2CCN(S(=O)(=O)C3(C(=O)NO)CCN(CCOC)CC3)CC2)nc1 [Example 334] |
| 0.177 nM | 0.267 nM | Cc1ccc(-c2cnc(N3CCN(S(=O)(=O)C4(C(=O)NO)CCOCC4)CC3)s2)cc1 [Example 344] |
| 0.829 nM | 2.59 nM | CCN1CCC(C(=O)NO)(S(=O)(=O)N2CCN(c3ccc(-c4ccccc4)c(F)c3)CC2)CC1 [Example 341] |
| 0.618 nM | 0.489 nM | O=C(NO)C1(S(=O)(=O)N2CCN(c3ccc(CCC(F)(F)C(F)(F)F)cc3)CC2)CCN(C2CC2)CC1 [Example 335] |
| 16.9 nM | 3.89 nM | O=C(NO)C1(S(=O)(=O)N2CCN(c3ccc(OCCCC(F)(F)F)cc3)CC2)CC(O)C1 (stereo not drawn) [Example 342] |
| 1.26 nM | 0.359 nM | O=C(NO)C1(S(=O)(=O)N2CCC(c3ccc(CCCC(F)(F)F)cc3)CC2)CCN(C2CC2)CC1 [Example 351] |
| 44.1 nM | 509 nM | O=C(NO)C1(S(=O)(=O)N2CCC(COCC(F)(F)C(F)F)CC2)CCOCC1 [Example 375] |
| 4.02 nM | 4.23 nM | O=C(NO)C1(S(=O)(=O)N2CCC(c3ccc(-c4ccccc4)cn3)CC2)CCOCC1 [Example 392] |

| Ki (MMP-2) | Ki (MMP-13) | SMILES |
| --- | --- | --- |
| 0.451 nM and 0.479 nM | 0.485 nM and 0.654 nM | O=C(NO)C1(S(=O)(=O)N2CCN(c3ccc(-c4ccccc4)cn3)CC2)CCOCC1 [Example 372] |
| 0.209 nM | 0.074 nM | CCc1ccc(-c2cnc(N3CCN(S(=O)(=O)C4(C(=O)NO)CCOCC4)CC3)s2)cc1 [Example 381] |
| 1.37 nM and 1.39 nM | 1.06 nM and 1.07 nM | O=C(NO)C1(S(=O)(=O)N2CCN(c3ncc(/C=C/c4ccccc4)s3)CC2)CCOCC1 [Example 361] |
| 0.68 nM | 0.647 nM | O=C(NO)C1(S(=O)(=O)N2CCN(c3ncc(-c4cccnc4)s3)CC2)CCOCC1 [Example 382] |
| 27.1 nM | 31.2 nM | O=C(NO)C1(S(=O)(=O)N2CCC(COCC(F)(F)C(F)(F)F)CC2)CCOCC1 [Example 376] |
| 79 nM | 62.3 nM | COc1ccccc1-c1ccc(N2CCN(S(=O)(=O)C3(C(=O)NO)CCOCC3)CC2)nc1 [Example 318] |
| 0.056 nM | 0.076 nM | O=C(NO)C1(S(=O)(=O)N2CCN(c3ncc(-c4ccc([N+](=O)[O-])cc4)s3)CC2)CCOCC1 [Example 363] |
| > 10000 nM | > 10000 nM | O=C(NO)C1(S(=O)(=O)N2CCN(c3cnn(-c4ccccc4)c(=O)c3Cl)CC2)CCOCC1 [Example 329] |
| 0.26 nM | 0.107 nM | O=C(NO)C1(S(=O)(=O)N2CCC(c3ccc(CCC(F)(F)C(F)(F)F)cn3)CC2)CCOCC1 [Example 340] |
| 1230 nM | 104 nM | NC(=O)c1ccccc1-c1cnc(N2CCN(S(=O)(=O)C3(C(=O)NO)CCOCC3)CC2)s1 [Example 383] |
| 0.18 nM | 0.09 nM | CCCCOc1ccc(N2CCN(S(=O)(=O)C3(C(=O)NO)CCN(CCOC)CC3)CC2)nc1 [Example 325] |
| 4.14 nM | 1.35 nM | COc1ccc(-c2cnc(N3CCN(S(=O)(=O)C4(C(=O)NO)CCOCC4)CC3)s2)cc1OC [Example 371] |
| 6.71 nM | 31 nM | O=C(NO)C1(S(=O)(=O)N2CCN(c3ncc(-c4ccccn4)s3)CC2)CCOCC1 [Example 387] |
| 1.8 nM | 1.73 nM | O=C(NO)C1(S(=O)(=O)N2CCC(c3ccc(-c4cccs4)cn3)CC2)CCOCC1 [Example 394] |
| 201 nM | 101 nM | O=C(NO)C1(S(=O)(=O)N2CCN(c3ncc(-c4cccc(-c5ccccc5)c4)s3)CC2)CCOCC1 [Example 365] |
| 3.58 nM | 0.71 nM | O=C(NO)C1(S(=O)(=O)N2CCN(c3ccc(-c4ccc(Cl)c(Cl)c4)cc3)CC2)CCOCC1 [Example 328] |
| 2.32 nM | 2.19 nM | CCCCc1ccc(C2CCN(S(=O)(=O)C3(C(=O)NO)CCN(CC)CC3)CC2)nc1 [Example 396] |
| 0.891 nM | 0.523 nM | O=C(NO)C1(S(=O)(=O)N2CCC(c3ccc(OCC(F)(F)C(F)F)cc3)CC2)CCN(C2CC2)CC1 [Example 350] |
| 18.6 nM | 5.72 nM | CCC=C1CCN(S(=O)(=O)C2(C(=O)NO)CCOCC2)CC1 [Example 374] |

| Ki (MMP-2) | Ki (MMP-13) | SMILES |
| --- | --- | --- |
| > 10000 nM | > 10000 nM | O=C(NO)C1(S(=O)(=O)N2CCN(c3cnn(CCCC(F)(F)F)c(=O)c3)CC2)CCOCC1 [Example 321] |
| 0.919 nM | 1.2 nM | O=C(NO)C1(S(=O)(=O)N2CCC(c3ccc(OCC(F)(F)F)cc3)CC2)CCOCC1 [Example 357] |
| 0.573 nM | 0.378 nM | O=C(NO)C1(S(=O)(=O)N2CCC(c3ccc(OCC(F)(F)C(F)F)cc3)CC2)CCN(CCN2CCOCC2)CC1 [Example 385] |
| 0.879 nM | 1.35 nM | O=C(NO)C1(S(=O)(=O)N2CCN(c3ncc(-c4ccc(Cl)c(Cl)c4)s3)CC2)CCOCC1 [Example 369] |
| 65.7 nM | 35.3 nM | CCCCCc1cccc(N2CCN(S(=O)(=O)C3(C(=O)NO)CCOCC3)CC2)c1 [Example 356] |
| 7870 nM | > 10000 nM | O=C(NO)C1(S(=O)(=O)N2CCN(c3cnn(-c4ccccc4)c(=O)c3)CC2)CCOCC1 [Example 322] |
| 0.395 nM | 0.426 nM | O=C(NO)C1(S(=O)(=O)N2CCN(c3ncc(-c4ccc(-c5ccccc5)cc4)s3)CC2)CCOCC1 [Example 360] |
| 0.58 nM | 1.12 nM | O=C(NO)C1(S(=O)(=O)N2CCN(c3ccc(OCC4CC4)c(F)c3)CC2)CCOCC1 [Example 333] |
| 0.185 nM | 0.272 nM | N#Cc1cccc(-c2cnc(N3CCN(S(=O)(=O)C4(C(=O)NO)CCOCC4)CC3)s2)c1 [Example 384] |
| 0.606 nM | 0.522 nM | O=C(NO)C1(S(=O)(=O)N2CCN(c3ccc(OCC(F)(F)C(F)F)cc3)CC2)CCOCC1 [Example 336] |
| 0.842 nM | 0.501 nM | O=C(NO)C1(S(=O)(=O)N2CCN(c3ccc(CCCC(F)(F)F)cc3)CC2)CCOCC1 [Example 320] |
| 0.169 nM | 0.236 nM | O=C(NO)C1(S(=O)(=O)N2CCN(c3ncc(-c4ccc(F)cc4)s3)CC2)CCOCC1 [Example 345] |
| 0.281 nM | 0.15 nM | O=C(NO)C1(S(=O)(=O)N2CCN(c3ccc(CCCC(F)(F)F)cn3)CC2)CCOCC1 [Example 358] |
| 8.57 nM | 1.48 nM | CC(C)(C)c1ccc(-c2cnc(N3CCN(S(=O)(=O)C4(C(=O)NO)CCOCC4)CC3)s2)cc1 [Example 347] |
| 0.34 nM | 0.31 nM | O=C(NO)C1(S(=O)(=O)N2CCN(c3ccc(OCC(F)(F)C(F)F)cc3)CC2)CCOCC1 [Example 326] |
| 1.34 nM | 4.16 nM | Cc1cccc(-c2cnc(N3CCN(S(=O)(=O)C4(C(=O)NO)CCOCC4)CC3)s2)c1 [Example 370] |
| 0.215 nM | 0.167 nM | O=C(NO)C1(S(=O)(=O)N2CCN(c3ncc(-c4ccc(C(F)(F)F)cc4)s3)CC2)CCOCC1 [Example 346] |
| 0.978 nM | 0.835 nM | O=C(NO)C1(S(=O)(=O)N2CCC(c3ccc(CCC(F)(F)F)cn3)CC2)CCOCC1 [Example 367] |

| SMILES | Ki (MMP-2) | Ki (MMP-13) |
| --- | --- | --- |
| O=C(NO)C1(S(=O)(=O)N2CCC(COCC(F)(F)C(F)(F)C(F)(F)C(F)F)CC2)CCOCC1 [Example 378] | 24.8 nM | 48.4 nM |
